Assay results: publication PMC7830863, “Characterization of Cross-Linked Enzyme Aggregates of the Y509E Mutant of a Glycoside Hydrolase Family 52 β-xylosidase from G. stearothermophilus” (Molecules, 2021)

Target: T1, XynB2 (Geobacillus stearothermophilus, UniProt Q09LZ0, Y509E)
T1 construct: recombinant in E. coli C43 from plasmid pJAVI100 (template pJAVI91); semi-purified by heat treatment (45 °C, 30 min) and dialysis; all rows Y509E
Assay: p-nitrophenol release at […] nm, hyperbolic fit
Assay type: biochemical
Conditions: free semi-purified (heat-treated extract) enzyme; 100 mM citrate phosphate-glycine buffer, pH 6.5, 50 °C

T1 sequence (Q09LZ0 entry or part of it Y509E): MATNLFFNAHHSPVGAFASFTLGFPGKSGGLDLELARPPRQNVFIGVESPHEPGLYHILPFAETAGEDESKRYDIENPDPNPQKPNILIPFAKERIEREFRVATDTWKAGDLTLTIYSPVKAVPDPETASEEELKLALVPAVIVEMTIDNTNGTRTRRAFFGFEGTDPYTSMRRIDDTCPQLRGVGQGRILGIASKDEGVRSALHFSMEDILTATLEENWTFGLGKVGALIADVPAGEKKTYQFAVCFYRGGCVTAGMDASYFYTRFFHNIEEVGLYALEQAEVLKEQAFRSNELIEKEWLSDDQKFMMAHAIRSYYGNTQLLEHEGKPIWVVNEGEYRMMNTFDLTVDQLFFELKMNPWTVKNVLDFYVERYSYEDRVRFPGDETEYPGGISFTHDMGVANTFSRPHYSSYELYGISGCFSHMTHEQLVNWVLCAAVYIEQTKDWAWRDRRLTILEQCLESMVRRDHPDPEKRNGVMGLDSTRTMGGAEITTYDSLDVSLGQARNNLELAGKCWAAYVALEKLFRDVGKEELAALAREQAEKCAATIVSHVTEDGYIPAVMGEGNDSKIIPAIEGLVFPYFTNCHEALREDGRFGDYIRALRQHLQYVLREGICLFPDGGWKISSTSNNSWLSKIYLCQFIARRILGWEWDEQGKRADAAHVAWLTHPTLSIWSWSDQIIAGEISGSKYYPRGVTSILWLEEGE

Km: 900 ± 100 µM
SMILES: O=[N+]([O-])c1ccc(O[C@@H]2OC[C@@H](O)[C@H](O)[C@H]2O)cc1 [p-nitrophenyl-β-d-xylopyranoside]
